Experiments:
MV4-11 cell line = experiment: CellTiter-Glo Luminescent Cell Viability Assay, cell growth inhibition; type: cell-based; conditions: Homo sapiens, 96 h, 4 days
Experimental: (§1) Cell growth inhibitory activity of representative MDM2 protein degraders was determined using CellTiter-Glo® Luminescent Cell Viability Assay. Cells were seeded in 384-well white opaque cell culture plates at a density of 2,000 cells/well with serially diluted compounds and incubated at 37° C. in an atmosphere of 95% air and 5% CO2 for 4 days. Cell viability was determined using the CellTiter-Glo® Luminescent Cell Viability Assay Kit (Promega, Madison, WI) according to the manufacture's instruction. Briefly, a volume of CellTiter-Glo® Reagent equal to the volume of cell culture medium was added to each well, and then the plates were incubated at room temperature for 10-20 minutes. The luminescent signal was measured using a Tecan Infinite M1000 multimode microplate reader (Tecan, Morrisville, NC). The half maximal inhibitory concentration (IC50) was calculated using the GraphPad Prism 5 software (GraphPad Software, La Jolla, CA). Cpd. […] The structure of Cpd.

RS4; 11 cell line = experiment: as above; type: cell-based; conditions: Homo sapiens, 96 h, 4 days
Experimental: as §1

Row | Compound | IC50 (MV4-11 cell line) [nM] | IC50 (RS4; 11 cell line) [nM]
1 | O=C(CNc1cccc2c1C(=O)N(C1CCC(=O)NC1=O)C2=O)NCCCOCCOCCOCCCNC(=O)c1ccc(NC(=O)[C@@H]2NC3(CCCCC3)[C@@]3(C(=O)Nc4cc(Cl)ccc43)[C@H]2c2cccc(Cl)c2F)cc1 (stereo partly drawn) [Cpd. No. 3, (3′R,4'S,5′R)-6″-chloro-4′-(3-chloro-2-fluorophenyl)-N-(4-((1-((2-(2,6-dioxopiperidin-3-yl)-1,3-dioxoisoindolin-4-yl)amino)-2-oxo-7,10,13-trioxa-3-azahexadecan-16-yl)carbamoyl)phenyl)-2″-oxodispiro[cyclohexane-1,2′-pyrrolidine-3′,3″-indoline]-5′-carboxamide] | 5.6 | 22
2 | O=C1CCC(N2C(=O)c3cccc(OCCOCCOCCOCCNC(=O)c4ccc(NC(=O)[C@@H]5NC6(CCCCC6)[C@@]6(C(=O)Nc7cc(Cl)ccc76)[C@H]5c5cccc(Cl)c5F)cc4)c3C2=O)C(=O)N1 (stereo partly drawn) [Cpd. No. 4, (3′R,4'S,5′R)-6″-chloro-4′-(3-chloro-2-fluorophenyl)-N-(4-((2-(2-(2-(2-((2-(2,6-dioxopiperidin-3-yl)-1,3-dioxoisoindolin-4-yl)oxy)ethoxy)ethoxy)ethoxy)ethyl)carbamoyl)phenyl)-2″-oxodispiro[cyclohexane-1,2′-pyrrolidine-3′,3″-indoline]-5′-carboxamide] | 6 | 14
3 | O=C1CCC(N2C(=O)c3cccc(NCCCOCCOCCOCCCNC4CCN(C(=O)c5ccc(NC(=O)[C@@H]6NC7(CCCCC7)[C@@]7(C(=O)Nc8cc(Cl)ccc87)[C@H]6c6cccc(Cl)c6F)cc5)CC4)c3C2=O)C(=O)N1 (stereo partly drawn) [Cpd. No. 5, (3′R,4'S,5′R)-6″-chloro-4′-(3-chloro-2-fluorophenyl)-N-(4-(4-((3-(2-(2-(3-((2-(2,6-dioxopiperidin-3-yl)-1,3-dioxoisoindolin-4-yl)amino)propoxy)ethoxy)ethoxy)propyl)amino)piperidine-1-carbonyl)phenyl)-2″-oxodispiro[cyclohexane-1,2′-pyrrolidine-3′,3″-indoline]-5′-carboxamide] | 15 | 2.2
4 | O=C1CCC(N2C(=O)c3cccc(NCCOCCOCCOCCOc4ccc(NC(=O)c5ccc(NC(=O)[C@@H]6NC7(CCCCC7)[C@@]7(C(=O)Nc8cc(Cl)ccc87)[C@H]6c6cccc(Cl)c6F)cc5)cc4)c3C2=O)C(=O)N1 (stereo partly drawn) [Cpd. No. 6, (3′R,4'S,5′R)-6″-chloro-4′-(3-chloro-2-fluorophenyl)-N-(4-((4-(2-(2-(2-(2-((2-(2,6-dioxopiperidin-3-yl)-1,3-dioxoisoindolin-4-yl)amino)ethoxy)ethoxy)ethoxy)ethoxy)phenyl)carbamoyl)phenyl)-2″-oxodispiro[cyclohexane-1,2′-pyrrolidine-3′,3″-indoline]-5′-carboxamide] | 37 | 38
5 | O=C1CCC(N2C(=O)c3cccc(NCCNC(=O)c4ccc(NC(=O)[C@@H]5NC6(CCCCC6)[C@@]6(C(=O)Nc7cc(Cl)ccc76)[C@H]5c5cccc(Cl)c5F)cc4)c3C2=O)C(=O)N1 (stereo partly drawn) [Cpd. No. 7, (3′R,4'S,5′R)-6″-chloro-4′-(3-chloro-2-fluorophenyl)-N-(4-((2-((2-(2,6-dioxopiperidin-3-yl)-1,3-dioxoisoindolin-4-yl)amino)ethyl)carbamoyl)phenyl)-2″-oxodispiro[cyclohexane-1,2′-pyrrolidine-3′,3″-indoline]-5′-carboxamide] | 20 | 15
6 | O=C1CCC(N2C(=O)c3cccc(NCCCCNC(=O)c4ccc(NC(=O)[C@@H]5NC6(CCCCC6)[C@@]6(C(=O)Nc7cc(Cl)ccc76)[C@H]5c5cccc(Cl)c5F)cc4)c3C2=O)C(=O)N1 (stereo partly drawn) [Cpd. No. 9, (3′R,4'S,5′R)-6″-chloro-4′-(3-chloro-2-fluorophenyl)-N-(4-((4-((2-(2,6-dioxopiperidin-3-yl)-1,3-dioxoisoindolin-4-yl)amino)butyl)carbamoyl)phenyl)-2″-oxodispiro[cyclohexane-1,2′-pyrrolidine-3′,3″-indoline]-5′-carboxamide] | 163 | 10
7 | O=C1CCC(N2C(=O)c3cccc(NCCCCCCNC(=O)c4ccc(NC(=O)[C@@H]5NC6(CCCCC6)[C@@]6(C(=O)Nc7cc(Cl)ccc76)[C@H]5c5cccc(Cl)c5F)cc4)c3C2=O)C(=O)N1 (stereo partly drawn) [Cpd. No. 11, (3′R,4'S,5′R)-6″-chloro-4′-(3-chloro-2-fluorophenyl)-N-(4-((6-((2-(2,6-dioxopiperidin-3-yl)-1,3-dioxoisoindolin-4-yl)amino)hexyl)carbamoyl)phenyl)-2″-oxodispiro[cyclohexane-1,2′-pyrrolidine-3′,3″-indoline]-5′-carboxamide] | 42 | 30
8 | O=C1CCC(N2C(=O)c3cccc(NCCOCCNC(=O)c4ccc(NC(=O)[C@@H]5NC6(CCCCC6)[C@@]6(C(=O)Nc7cc(Cl)ccc76)[C@H]5c5cccc(Cl)c5F)cc4)c3C2=O)C(=O)N1 (stereo partly drawn) [Cpd. No. 13, (3′R,4'S,5′R)-6″-chloro-4′-(3-chloro-2-fluorophenyl)-N-(4-((2-(2-((2-(2,6-dioxopiperidin-3-yl)-1,3-dioxoisoindolin-4-yl)amino)ethoxy)ethyl)carbamoyl)phenyl)-2″-oxodispiro[cyclohexane-1,2′-pyrrolidine-3′,3″-indoline]-5′-carboxamide] | 5.2 | 7.4
9 | O=C1CCC(N2C(=O)c3cccc(NCCOCCOCCOCCOCCOCCOCCOCCNC(=O)c4ccc(NC(=O)[C@@H]5NC6(CCCCC6)[C@@]6(C(=O)Nc7cc(Cl)ccc76)[C@H]5c5cccc(Cl)c5F)cc4)c3C2=O)C(=O)N1 (stereo partly drawn) [Cpd. No. 16, (3′R,4'S,5′R)-6″-chloro-4′-(3-chloro-2-fluorophenyl)-N-(4-((23-((2-(2,6-dioxopiperidin-3-yl)-1,3-dioxoisoindolin-4-yl)amino)-3,6,9,12,15,18,21-heptaoxatricosyl)carbamoyl)phenyl)-2″-oxodispiro[cyclohexane-1,2′-pyrrolidine-3′,3″-indoline]-5′-carboxamide] | 2.7 | 4.7
10 | O=C1CCC(N2C(=O)c3cccc(NCCCOCCCCOCCCNC(=O)c4ccc(NC(=O)[C@@H]5NC6(CCCCC6)[C@@]6(C(=O)Nc7cc(Cl)ccc76)[C@H]5c5cccc(Cl)c5F)cc4)c3C2=O)C(=O)N1 (stereo partly drawn) [Cpd. No. 17, (3′R,4'S,5′R)-6″-chloro-4′-(3-chloro-2-fluorophenyl)-N-(4-((3-(4-(3-((2-(2,6-dioxopiperidin-3-yl)-1,3-dioxoisoindolin-4-yl)amino)propoxy)butoxy)propyl)carbamoyl)phenyl)-2″-oxodispiro[cyclohexane-1,2′-pyrrolidine-3′,3″-indoline]-5′-carboxamide] | 21 | 19
11 | O=C1CCC(N2C(=O)c3cccc(NCCCOCCOCCOCCCNC(=O)c4ccc(NC(=O)[C@@H]5NC6(CCCCC6)[C@@]6(C(=O)Nc7cc(Cl)ccc76)[C@H]5c5cccc(Cl)c5F)cc4)c3C2=O)C(=O)N1 (stereo partly drawn) [Cpd. No. 18, (3′R,4'S,5′R)-6″-chloro-4′-(3-chloro-2-fluorophenyl)-N-(4-((3-(2-(2-(3-((2-(2,6-dioxopiperidin-3-yl)-1,3-dioxoisoindolin-4-yl)amino)propoxy)ethoxy)ethoxy)propyl)carbamoyl)phenyl)-2″-oxodispiro[cyclohexane-1,2′-pyrrolidine-3′,3″-indoline]-5′-carboxamide] | 5.2 | 7.4
12 | O=C1CCC(N2Cc3c(NCCOCCNC(=O)c4ccc(NC(=O)[C@@H]5NC6(CCCCC6)[C@@]6(C(=O)Nc7cc(Cl)ccc76)[C@H]5c5cccc(Cl)c5F)cc4)cccc3C2=O)C(=O)N1 (stereo partly drawn) [Cpd. No. 20, (3′R,4'S,5′R)-6″-chloro-4′-(3-chloro-2-fluorophenyl)-N-(4-((2-(2-((2-(2,6-dioxopiperidin-3-yl)-1-oxoisoindolin-4-yl)amino)ethoxy)ethyl)carbamoyl)phenyl)-2″-oxodispiro[cyclohexane-1,2′-pyrrolidine-3′,3″-indoline]-5′-carboxamide] | 7.6 | 8.5
13 | O=C1CCC(N2Cc3c(NCCOCCOCCOCCOCCNC(=O)c4ccc(NC(=O)[C@@H]5NC6(CCCCC6)[C@@]6(C(=O)Nc7cc(Cl)ccc76)[C@H]5c5cccc(Cl)c5F)cc4)cccc3C2=O)C(=O)N1 (stereo partly drawn) [Cpd. No. 23, (3′R,4'S,5′R)-6″-chloro-4′-(3-chloro-2-fluorophenyl)-N-(4-((14-((2-(2,6-dioxopiperidin-3-yl)-1-oxoisoindolin-4-yl)amino)-3,6,9,12-tetraoxatetradecyl)carbamoyl)phenyl)-2″-oxodispiro[cyclohexane-1,2′-pyrrolidine-3′,3″-indoline]-5′-carboxamide] | 21 | 19
14 | O=C1CCC(N2C(=O)c3cccc(NCCOCCOCCNC(=O)c4ccc(NC(=O)[C@@H]5NC6(CCCCC6)[C@@]6(C(=O)Nc7cc(Cl)ccc76)[C@H]5c5cccc(Cl)c5F)nc4)c3C2=O)C(=O)N1 (stereo partly drawn) [Cpd. No. 24, (3′R,4'S,5′R)-6″-chloro-4′-(3-chloro-2-fluorophenyl)-N-(5-((2-(2-(2-((2-(2,6-dioxopiperidin-3-yl)-1,3-dioxoisoindolin-4-yl)amino)ethoxy)ethoxy)ethyl)carbamoyl)pyridin-2-yl)-2″-oxodispiro[cyclohexane-1,2′-pyrrolidine-3′,3″-indoline]-5′-carboxamide] | 5 | 7

Reference: patent US12637473B2, “MDM2 protein degraders” (THE REGENTS OF THE UNIVERSITY OF MICHIGAN, priority 2016, dated 2026)
